From patent US12091426B2, “Bifunctional degraders of hematopoietic progenitor kinase and therapeutic uses thereof” (Nurix Therapeutics, Inc., priority 2021, dated 2024)

Molecular target: T1, HPK1 (Homo sapiens, UniProt Q92918)
T1 construct: A HiBiT tag was introduced by CRISPR on the N terminus of HPK1 in Jurkat cells; host or cells: Jurkat cells (ATCC TIB-152), monoclonal line with CRISPR knock-in of HiBiT at the endogenous HPK1 locus
Assay: HPK1 Cellular HiBit Degradation Assay
Format: cell-based
Conditions: HiBiT HPK1 Jurkat cells, 24 hrs; for DC50: concentration at which 50% of HPK1 was remaining, read-out: DC50 Category; for Dmax: Jurkat, maximum degradation vs DMSO vehicle control, read-out: Dmax Category
In short: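 Jurkat cells with CRISPR knock-in N-terminal HiBiT-HPK1 were treated with CTMs (11-point, 3.16-fold, 10 uM to 0.1 nM final) for 24 hrs at 37° C. HiBiT lytic luminescence, with parental Jurkat as background and DMSO as 100%, gave % HPK1 remaining; four-parameter fit yielded DC50 and Dmax (100 minus lowest % remaining).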

T1 sequence (Q92918 whole entry): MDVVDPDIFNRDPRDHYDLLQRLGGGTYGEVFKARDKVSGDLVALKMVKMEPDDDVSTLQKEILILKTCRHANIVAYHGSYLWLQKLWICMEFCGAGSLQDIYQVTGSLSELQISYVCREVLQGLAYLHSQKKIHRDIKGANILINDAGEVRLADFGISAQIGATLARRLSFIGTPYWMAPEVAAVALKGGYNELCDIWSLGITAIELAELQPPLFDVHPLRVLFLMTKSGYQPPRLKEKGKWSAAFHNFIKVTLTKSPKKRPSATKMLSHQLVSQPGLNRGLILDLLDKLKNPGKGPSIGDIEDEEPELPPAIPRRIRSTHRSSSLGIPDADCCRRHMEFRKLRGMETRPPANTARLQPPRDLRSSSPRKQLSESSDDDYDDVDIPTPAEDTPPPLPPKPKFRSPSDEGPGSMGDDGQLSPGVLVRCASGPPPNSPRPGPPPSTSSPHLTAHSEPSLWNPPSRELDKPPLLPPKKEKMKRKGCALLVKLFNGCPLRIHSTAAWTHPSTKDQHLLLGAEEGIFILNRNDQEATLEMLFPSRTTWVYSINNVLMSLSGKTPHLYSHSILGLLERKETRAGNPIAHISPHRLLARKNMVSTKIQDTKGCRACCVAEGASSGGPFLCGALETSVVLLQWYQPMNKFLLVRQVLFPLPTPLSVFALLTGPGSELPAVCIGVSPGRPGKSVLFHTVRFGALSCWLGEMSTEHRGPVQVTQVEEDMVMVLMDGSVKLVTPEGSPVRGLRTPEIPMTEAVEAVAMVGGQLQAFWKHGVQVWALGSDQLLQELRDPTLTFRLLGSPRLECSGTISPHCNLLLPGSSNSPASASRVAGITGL

| Structure (SMILES) | DC50 [nM] | Dmax [%] |
| --- | --- | --- |
| CC(C)n1cnc2cc(-c3ccc4c(c3)N([C@H]3C[C@@H](N5CCCCC5)C3)C(=O)C43CCN(C(=O)C4CCN(C(=O)CC5CCN(c6ccc(C7CCC(=O)NC7=O)cn6)CC5)CC4)CC3)nc(Oc3ccccc3F)c21 (stereo partly drawn) [Example 167, 3-[6-(4-{2-[4-({6-[4-(2-fluorophenoxy)-3-(propan-2-yl)-3H-imidazo[4,5-c]pyridin-6-yl]-2-oxo-1-[(1S,3S)-3-(piperidin-1-yl)cyclobutyl]-1,2-dihydrospiro[indole-3,4′-piperidin]-1′-yl}carbonyl)piperidin-1-yl]-2-oxoethyl}piperidin-1-yl)pyridin-3-yl]piperidine-2,6-dione] | < 100 | 70 to 85 |
| CC(C)n1cnc2cc(-c3ccc4c(c3)N([C@H]3C[C@@H](N5CCCCC5)C3)C(=O)C43CCN(C(=O)C4(C)CCN(C(=O)C5CCN(c6ccc(C7CCC(=O)NC7=O)cn6)CC5)CC4)CC3)nc(Oc3ccccc3)c21 (stereo partly drawn) [Example 168, 3-(6-{4-[4-methyl-4-({2-oxo-6-[4-phenoxy-3-(propan-2-yl)-3H-imidazo[4,5-c]pyridin-6-yl]-1-[(1S,3S)-3-(piperidin-1-yl)cyclobutyl]-1,2-dihydrospiro[indole-3,4′-piperidin]-1′-yl}carbonyl)piperidine-1-carbonyl]piperidin-1-yl}pyridin-3-yl)piperidine-2,6-dione] | < 100 | > 85 |
| CC(C)Oc1nc(-c2ccc3c(c2)N([C@H]2C[C@@H](N4CCCCC4)C2)C(=O)C32CCN(C(=O)C3(C)CCN(C(=O)C4CCN(c5ccc(C6CCC(=O)NC6=O)cn5)CC4)CC3)CC2)cc2ncn(C(C)C)c12 (stereo partly drawn) [Example 169, 3-(6-{4-[4-methyl-4-({2-oxo-6-[3-(propan-2-yl)-4-(propan-2-yloxy)-3H-imidazo[4,5-c]pyridin-6-yl]-1-[(1S,3S)-3-(piperidin-1-yl)cyclobutyl]-1,2-dihydrospiro[indole-3,4′-piperidin]-1′-yl}carbonyl)piperidine-1-carbonyl]piperidin-1-yl}pyridin-3-yl)piperidine-2,6-dione] | < 100 | > 85 |
| CC(C)n1cnc2cc(-c3ccc4c(c3)N([C@H]3C[C@@H](N5CCCCC5)C3)C(=O)C43CCN(C(=O)C4(C)CCN(C(=O)C5CCN(c6ccc(C7CCC(=O)NC7=O)cn6)CC5)CC4)CC3)nc(N3CCCC3)c21 (stereo partly drawn) [Example 170, 3-(6-{4-[4-methyl-4-({2-oxo-6-[3-(propan-2-yl)-4-(pyrrolidin-1-yl)-3H-imidazo[4,5-c]pyridin-6-yl]-1-[(1S,3S)-3-(piperidin-1-yl)cyclobutyl]-1,2-dihydrospiro[indole-3,4′-piperidin]-1′-yl}carbonyl)piperidine-1-carbonyl]piperidin-1-yl}pyridin-3-yl)piperidine-2,6-dione] | 100 to 500 | 50 to 70 |
| CC(C(=O)N1CCN(C(=O)C2CCN(c3ccc(C4CCC(=O)NC4=O)cn3)CC2)CC1)N1CCC2(CC1)C(=O)N([C@H]1C[C@@H](N3CCCCC3)C1)c1cc(-c3cc4ncn(C(C)C)c4c(NC4CC4)n3)ccc12 (stereo partly drawn) [Example 172, 3-(6-{4-[4-(2-{6-[4-(cyclopropylamino)-3-(propan-2-yl)-3H-imidazo[4,5-c]pyridin-6-yl]-2-oxo-1-[(1S,3S)-3-(piperidin-1-yl)cyclobutyl]-1,2-dihydrospiro[indole-3,4′-piperidin]-1′-yl}propanoyl)piperazine-1-carbonyl]piperidin-1-yl}pyridin-3-yl)piperidine-2,6-dione] | < 100 | > 85 |
| CC(C(=O)N1CCN(C(=O)C2CCN(c3cc(C4CCC(=O)NC4=O)ccn3)CC2)CC1)N1CCC2(CC1)C(=O)N([C@H]1C[C@@H](N3CCCCC3)C1)c1cc(-c3cc4ncn(C(C)C)c4c(NC4CC4)n3)ccc12 (stereo partly drawn) [Example 173, 3-(2-{4-[4-(2-{6-[4-(cyclopropylamino)-3-(propan-2-yl)-3H-imidazo[4,5-c]pyridin-6-yl]-2-oxo-1-[(1S,3S)-3-(piperidin-1-yl)cyclobutyl]-1,2-dihydrospiro[indole-3,4′-piperidin]-1′-yl}propanoyl)piperazine-1-carbonyl]piperidin-1-yl}pyridin-4-yl)piperidine-2,6-dione] | 100 to 500 | 70 to 85 |

Continued, values first:

| DC50 [nM] | Dmax [%] | Structure (SMILES) |
| --- | --- | --- |
| 100 to 500 | 70 to 85 | CC(C)n1cnc2cc(-c3ccc4c(c3)N([C@H]3C[C@@H](N5CCCCC5)C3)C(=O)C43CCN(C(=O)C4(C)CCN(C(=O)C5CCN(c6ccc(C7CCC(=O)NC7=O)cn6)CC5)CC4)CC3)nc(N(C)C3CC3)c21 (stereo partly drawn) [Example 171, 3-[6-(4-{4-[(6-{4-[cyclopropyl(methyl)amino]-3-(propan-2-yl)-3H-imidazo[4,5-c]pyridin-6-yl}-2-oxo-1-[(1S,3S)-3-(piperidin-1-yl)cyclobutyl]-1,2-dihydrospiro[indole-3,4′-piperidin]-1′-yl)carbonyl]-4-methylpiperidine-1-carbonyl}piperidin-1-yl)pyridin-3-yl]piperidine-2,6-dione] |
| < 100 | > 85 | CC(C)n1cnc2cc(-c3ccc4c(c3)N([C@H]3C[C@@H](N5CCCCC5)C3)C(=O)C43CCN(C(=O)C4(C)CCN(C(=O)C5CCN(c6ccc(C7CCC(=O)NC7=O)cn6)CC5)CC4)CC3)nc(N[C@H]3C[C@@H](C#N)C3)c21 (stereo partly drawn) [Example 174, (1S,3S)-3-({6-[1′-(1-{1-[5-(2,6-dioxopiperidin-3-yl)pyridin-2-yl]piperidine-4-carbonyl}-4-methylpiperidine-4-carbonyl)-2-oxo-1-[(1S,3S)-3-(piperidin-1-yl)cyclobutyl]-1,2-dihydrospiro-[indole-3,4′-piperidin]-6-yl]-3-(propan-2-yl)-3H-imidazo[4,5-c]pyridin-4-yl}amino)cyclobutane-1-carbonitrile] |
| < 100 | 70 to 85 | CC(C)n1cnc2cc(-c3ccc4c(c3)N([C@H]3C[C@@H](N5CCCCC5)C3)C(=O)C43CCN(C(=O)C4(C)CCN(C(=O)C5CCN(c6ccc(C7CCC(=O)NC7=O)cn6)CC5)CC4)CC3)nc(N3CC(C#N)C3)c21 (stereo partly drawn) [Example 175, 1-{6-[1′-(1-{1-[5-(2,6-dioxopiperidin-3-yl)pyridin-2-yl]piperidine-4-carbonyl}-4-methylpipe-ridine-4-carbonyl)-2-oxo-1-[(1S,3S)-3-(piperidin-1-yl)cyclobutyl]-1,2-dihydrospiro[indole-3,4′-pi-peridin]-6-yl]-3-(propan-2-yl)-3H-imidazo[4,5-c]pyridin-4-yl}azetidine-3-carbonitrile] |
| 100 to 500 | 70 to 85 | CC(C)n1cnc2cc(-c3ccc4c(c3)N([C@H]3C[C@@H](N5CCCCC5)C3)C(=O)C43CCN(C(=O)C4(C)CCN(C(=O)C5CCN(c6ccc(C7CCC(=O)NC7=O)cn6)CC5)CC4)CC3)nc(N[C@H]3C[C@H](C#N)C3)c21 (stereo partly drawn) [Example 176, (1R,3R)-3-({6-[1′-(1-{1-[5-(2,6-dioxopiperidin-3-yl)pyridin-2-yl]piperidine-4-carbonyl}-4-methylpiperidine-4-carbonyl)-2-oxo-1-[(1S,3S)-3-(piperidin-1-yl)cyclobutyl]-1,2-dihydrospiro[indole-3,4′-piperidin]-6-yl]-3-(propan-2-yl)-3H-imidazo[4,5-c]pyridin-4-yl}amino)cyclobutane-1-carbonitrile] |
